# Measurements taken from US8642770B2, “Indole derivative” (Takeda Pharmaceutical Company Limited, priority 2010, dated 2014).
# Structures can show the parent of a compound that is named as a salt.
row,melting point [°C],Compound
1,278,Cc1c(NC(=O)c2ccc(OC[C@@H]3CCCO3)cc2)ccc2c1cc(CN[C@H]1CC[C@](C)(O)CC1)n2C.Cl
2,150 to 151,"Cn1c(CNCC(C)(C)C)cc2cc(NC(=O)c3ccc(OC[C@@H]4CCCO4)cc3)ccc21 (as salt: acetate) [Example 15, N-(2-{[(2,2-dimethylpropyl)amino]methyl}-1-methyl-1H-indol-5-yl)-4-[(2S)-tetrahydrofuran-2-ylmethoxy]benzamide acetate]"
3,166 to 167,"CC1(CNCc2cc3cc(NC(=O)c4ccc(OCC5CC5)cc4)ccc3[nH]2)COC1 [Example 1, 4-(cyclopropylmethoxy)-N-[2-({[(3-methyloxetan-3-yl)methyl]amino}methyl)-1H-indol-5-yl]benzamide]"
4,160,"O=C(Nc1ccc2[nH]c(CNCC3CCOCC3)cc2c1)c1ccc(OCC2CC2)cc1 [Example 3, 4-(cyclopropylmethoxy)-N-(2-{[(tetrahydro-2H-pyran-4-ylmethyl)amino]methyl}-1H-indol-5-yl)benzamide]"
5,154 to 155,"Cn1c(CNCC2(C)COC2)cc2cc(NC(=O)c3ccc(OCC4CC4)cc3)ccc21 [Example 4, 4-(cyclopropylmethoxy)-N-[1-methyl-2-({[(3-methyloxetan-3-yl)methyl]amino}methyl)-1H-indol-5-yl]benzamide]"
6,188 to 189,"Cn1c(CNCC(C)(C)O)cc2cc(NC(=O)c3ccc(OCC4CC4)cc3)ccc21 [Example 5, 4-(cyclopropylmethoxy)-N-(2-{[(2-hydroxy-2-methylpropyl)amino]methyl}-1-methyl-1H-indol-5-yl)benzamide]"
7,168 to 169,"Cn1c(CNCC(C)(C)S(C)(=O)=O)cc2cc(NC(=O)c3ccc(OCC4CC4)cc3)ccc21 [Example 7, 4-(cyclopropylmethoxy)-N-[1-methyl-2-({[2-methyl-2-(methylsulfonyl)propyl]amino}methyl)-1H-indol-5-yl]benzamide]"
8,196 to 197,"Cn1c(CN[C@H]2CC[C@H](O)CC2)cc2cc(NC(=O)c3ccc(OCC4CC4)cc3)ccc21 [Example 8, 4-(cyclopropylmethoxy)-N-(2-{[(trans-4-hydroxycyclohexyl)amino]methyl}-1-methyl-1H-indol-5-yl)benzamide]"
9,138 to 139,"Cn1c(CNC[C@H]2CCCO2)cc2cc(NC(=O)c3ccc(OCC4CC4)cc3)ccc21 [Example 10, 4-(cyclopropylmethoxy)-N-[1-methyl-2-({[(2R)-tetrahydrofuran-2-ylmethyl]amino}methyl)-1H-indol-5-yl]benzamide]"
10,139,"Cn1c(CNC[C@@H]2CCCO2)cc2cc(NC(=O)c3ccc(OCC4CC4)cc3)ccc21 [Example 11, 4-(cyclopropylmethoxy)-N-[1-methyl-2-({[(2S)-tetrahydrofuran-2-ylmethyl]amino}methyl)-1H-indol-5-yl]benzamide]"
11,132 to 133,"CC(C)CNCc1cc2cc(NC(=O)c3ccc(OC[C@@H]4CCCO4)cc3)ccc2n1C [Example 16, N-(1-methyl-2-{[(2-methylpropyl)amino]methyl}-1H-indol-5-yl)-4-[(2S)-tetrahydrofuran-2-ylmethoxy]benzamide]"
12,154,"Cn1c(CNC2CCC(C)(O)CC2)cc2cc(NC(=O)c3ccc(OC[C@@H]4CCCO4)cc3)ccc21 (stereo partly drawn) [Example 18, N-(2-{[(trans-4-hydroxy-4-methylcyclohexyl)amino]methyl}-1-methyl-1H-indol-5-yl)-4-[(2S)-tetrahydrofuran-2-ylmethoxy]benzamide]"
13,188 to 190,"Cn1c(CNCC(C)(C)O)cc2cc(NC(=O)c3ccc(OC[C@@H]4CCCO4)cc3)ccc21 [Example 19, N-(2-{[(2-hydroxy-2-methylpropyl)amino]methyl}-1-methyl-1H-indol-5-yl)-4-[(2S)-tetrahydrofuran-2-ylmethoxy]benzamide]"
14,125 to 126,"CC(C)CNCc1cc2cc(NC(=O)c3ccc(OCC4CCOC4)cc3)ccc2n1C (stereo not drawn) [Example 21, N-(1-methyl-2-{[(2-methylpropyl)amino]methyl}-1H-indol-5-yl)-4-(tetrahydrofuran-3-ylmethoxy)benzamide]"
15,162 to 163,"Cn1c(CNCC(C)(C)C)cc2cc(NC(=O)c3ccc(OCC4CCOC4)cc3)ccc21 (stereo not drawn) [Example 22, N-(2-{[(2,2-dimethylpropyl)amino]methyl}-1-methyl-1H-indol-5-yl)-4-(tetrahydrofuran-3-ylmethoxy)benzamide]"
16,153 to 154,"Cn1c(CNCC2CCOCC2)cc2cc(NC(=O)c3ccc(OCC4CCOC4)cc3)ccc21 (stereo not drawn) [Example 23, N-(1-methyl-2-{[(tetrahydro-2H-pyran-4-ylmethyl)amino]methyl}-1H-indol-5-yl)-4-(tetrahydrofuran-3-ylmethoxy)benzamide]"
17,181 to 182,"Cn1c(CN[C@H]2CC[C@](C)(O)CC2)cc2cc(NC(=O)c3ccc(OCC4CCOC4)cc3)ccc21 (stereo partly drawn) [Example 24, N-(2-{[(trans-4-hydroxy-4-methylcyclohexyl)amino]methyl}-1-methyl-1H-indol-5-yl)-4-(tetrahydrofuran-3-ylmethoxy)benzamide]"
18,169,"Cn1c(CNCC(C)(C)O)cc2cc(NC(=O)c3ccc(OCC4CCOC4)cc3)ccc21 (stereo not drawn) [Example 25, N-(2-{[(2-hydroxy-2-methylpropyl)amino]methyl}-1-methyl-1H-indol-5-yl)-4-(tetrahydrofuran-3-ylmethoxy)benzamide]"
19,131 to 133,"Cn1c(CNCC2CCOC2)cc2cc(NC(=O)c3ccc(OCC4CCOC4)cc3)ccc21 (stereo not drawn) [Example 26, N-(1-methyl-2-{[(tetrahydrofuran-3-ylmethyl)amino]methyl}-1H-indol-5-yl)-4-(tetrahydrofuran-3-ylmethoxy)benzamide]"
20,159 to 160,"Cn1c(CNCC(C)(C)O)cc2cc(NC(=O)c3ccc(OC[C@@H]4CCCO4)cc3F)ccc21 [Example 27, 2-fluoro-N-(2-{[(2-hydroxy-2-methylpropyl)amino]methyl}-1-methyl-1H-indol-5-yl)-4-[(2S)-tetrahydrofuran-2-ylmethoxy]benzamide]"
21,138 to 139,"Cn1c(CN[C@H]2CC[C@](C)(O)CC2)cc2cc(NC(=O)c3ccc(OC[C@@H]4CCCO4)cc3F)ccc21 [Example 28, 2-fluoro-N-(2-{[(trans-4-hydroxy-4-methylcyclohexyl)amino]methyl}-1-methyl-1H-indol-5-yl)-4-[(2S)-tetrahydrofuran-2-ylmethoxy]benzamide]"
22,168 to 169,"CC(C)CNCc1cc2cc(NC(=O)c3ccc(C#CC4(O)CCC4)cc3)ccc2n1C [Example 29, 4-[(1-hydroxycyclobutyl)ethynyl]-N-(2-{[(2-methylpropyl)amino]methyl}-1-methyl-1H-indol-5-yl)benzamide]"
23,160 to 161,"Cn1c(CNCC(C)(C)C)cc2cc(NC(=O)c3ccc(C#CC4(O)CCC4)cc3)ccc21 [Example 30, N-(2-{[(2,2-dimethylpropyl)amino]methyl}-1-methyl-1H-indol-5-yl)-4-[(1-hydroxycyclobutyl)ethynyl]benzamide]"
24,173,"Cn1c(CNCC(C)(C)C)cc2cc(NC(=O)c3ccc(C#CC4(O)CC4)cc3)ccc21 [Example 31, N-(2-{[(2,2-dimethylpropyl)amino]methyl}-1-methyl-1H-indol-5-yl)-4-[(1-hydroxycyclopropyl)ethynyl]benzamide]"
